This experiment has as its system Plasmodium falciparum. The experiment can be described thus: GSK_TCMDC: Inhibition of Plasmodium falciparum 3D7 in whole erythrocytes, using parasite LDH activity as an index of growth. It is filed as functional, organism-based.

83 compounds from ChEMBL document CHEMBL1157539, “Thousands of chemical starting points for antimalarial lead identification” (Nature, 2010) can be followed below.

For the compound `O=C(/C=C/c1ccc(Cl)c(Cl)c1)NCCCCN1CCCN(C(=O)Nc2ccc(Cl)c(Cl)c2)CC1`, the XC50 (Plasmodium falciparum, 3D7) was 859 nM. Still for that read-out and setting: the figure for `COc1cc(CC2c3cc(O)c(Cl)cc3CCN2C)c(OC)cc1C` (centres undefined) is 713 nM; for `CC(C)Nc1nc(NCCc2c[nH]cn2)nc(NCc2ccc(Cl)c(Cl)c2)n1` it is 962 nM; for `Cc1ccc(NC(=O)c2ccc(-c3cc4cc(Cl)c(Cl)cc4[nH]3)cc2)cc1OCCN1CCCC1` it is 991 nM. On the same count and under the same terms, as for `O=C(CCC(=O)c1ccc2c3c(cccc13)CC2)NC1CCC(CN2CCC(c3c[nH]c4ccccc34)CC2)CC1` (centres undefined), the figure is 918 nM; as for `O=C(Nc1cccc(-c2cccc(-c3nc4cc(C(F)(F)F)ccc4[nH]3)c2)c1)c1csnn1`, 238 nM; as for `Fc1ccc2[nH]c(-c3cccc(-c4ccc(CNCc5cnn(-c6ccccc6)n5)cc4)c3)nc2c1`, 917 nM. Regarding `Cn1cccc1CCNCc1ccc(-c2cccc(-c3nc4ccccc4[nH]3)c2)cc1`, the XC50 (Plasmodium falciparum, 3D7) came out at 1210 nM.

Turning to `CN1CC=C(c2csc3ccc(NC(=O)Nc4ccc(-c5ccncc5)c(Cl)c4)cc23)CC1`, the XC50 (Plasmodium falciparum, 3D7) was 681 nM. Same read-out and setting: the figure for `O=C(Nc1ccc2nc3n(c(=O)c2c1)CCCCC3)C(=O)N1CCC(Cc2ccccc2)CC1` is 757 nM; for `CN(c1ccc2c(c1)nc(Nc1ccc(Cl)cc1)n2C)c1ccnc(Nc2ccc(CS(C)(=O)=O)cc2)n1` it is 758 nM; for `Cc1cnc(C[S+]([O-])c2nc3cc(C(F)(F)F)ccc3[nH]2)cc1OCc1ccccc1` (centres undefined) it is 742 nM.

`Cc1cc(=NN=Cc2ccc(F)cc2)c2cc(C(F)(F)F)ccc2[nH]1`: the XC50 (Plasmodium falciparum, 3D7) was found to be 228 nM. Turning to `CCOc1ccc(OCC)c(N2CCN(CCCCNC(=O)c3ccc(NC(=O)c4ccc(Cl)cc4)cc3)CC2)c1`, the XC50 (Plasmodium falciparum, 3D7) is 587 nM. Still for that read-out and setting: the figure for `CC1(C)NC(N)=NC(=N)N1OCCOc1cccc(C(F)(F)F)c1` is 3.2 nM; for `N#Cc1ccc(N/C(=N\c2cccc(Cl)c2Cl)NCc2ccc(Cl)cc2Cl)c(O)c1` it is 1120 nM. Still for that read-out and setting: the figure for `COc1ccc2ncc(F)c(CCN3CC[C@H](NCc4cc5c(s4)CCCN5)[C@H](O)C3)c2n1` is 962 nM; for `CCN(CC)CCCOC(=O)c1ccc2c(c1)-c1ccc(C(=O)OCCCN(CC)CC)c3cccc-2c13` it is 933 nM. `O=C(/C=C/c1cccc(F)c1)NC1CCC(CN2CCC(c3c[nH]c4ccccc34)CC2)CC1` (centres undefined) displayed an XC50 of 866 nM. This compound had an XC50 (Plasmodium falciparum, 3D7) of 713 nM.

The compound `Oc1ccc(CCNc2nc(NCc3ccccc3-c3cccc(Cl)c3)nc(N3CCNCC3)n2)cc1` gave an XC50 (Plasmodium falciparum, 3D7) of 1280 nM. On the same count and under the same terms, as for `O=[N+]([O-])c1cccc(NC(=S)N2CCCN(Cc3ccc(Cl)cc3Cl)CC2)c1`, the figure is 925 nM; as for `CC(Cc1ccc(C(=O)Nc2ccc(CC(C)NCCc3cccc(Cl)c3)cc2)cc1)NCCc1ccc(C(F)(F)F)cc1` (centres undefined), 570 nM. Still for that read-out and setting: as for `CC(=O)N1Cc2ccccc2C1=O`, the figure is 522 nM; as for `CC1CCCN(S(=O)(=O)c2cc(Br)cc3c2N(C(=O)C2CC2)CC3)C1` (centres undefined), 724 nM; as for `Cc1cc2c(NC(=O)NC3CCN(CCc4cccc(Cl)c4)CC3)cccc2cn1`, 370 nM. Still for that read-out and setting: as for `CC(C)C[C@H](NC(=O)[C@H](Cc1ccccc1)N(C[C@H](Cc1ccccc1)NC(=O)OC(C)(C)C)C(=O)C(F)(F)F)C(=O)NC1CCN(Cc2ccccc2)CC1`, the figure is 530 nM; as for `COc1ccc2nccc([C@@H](O)CN3CCC(NCc4ccc5c(c4)NC(=O)CO5)CC3)c2c1`, 1660 nM; as for `N#Cc1cccc(Nc2cc(C(F)(F)F)nc(Nc3ccccc3)n2)c1`, 1440 nM. Compound `c1nc2nc3c(c(Nc4ccc5c(c4)CCC5)n2n1)CCC3` yielded an XC50 (Plasmodium falciparum, 3D7) of 917 nM. The same measure, in the same setting: as for `COc1cc(C)nc2ccc(NC(=O)COCC(=O)Nc3ccc4nc(C)cc(OC)c4c3)cc12`, the figure is 917 nM; as for `CC(Cc1ccc(NC(=O)c2ccc(CNCCc3ccccc3)cc2)cc1)NCCc1cccc(Cl)c1` (centres undefined), 353 nM. Still for that read-out and setting: as for `CC(=O)c1ccc(NC(=O)Nc2ccc(N(C)c3ccnc(NC4CC4)n3)cc2)cc1`, the figure is 805 nM. On the same count and under the same terms, as for `O=C(Nc1ccc(-c2nc3ccccc3[nH]2)cc1)C1CCN(Cc2ccccc2)CC1`, the figure is 1760 nM; as for `Cc1ccc(OCCCCON2C(=N)N=C(N)NC2(C)C)cc1C`, 3.2 nM; as for `N=C(N)Nc1nc(-c2ccc(NCc3ccc(CNc4cccc(-c5csc(NC(=N)N)n5)c4)cc3)cc2)cs1`, 310 nM. For the setting “Plasmodium falciparum, 3D7”, `CCOC(=O)c1c(NC(NC(=O)c2ccc(C(C)(C)C)cc2)C(Cl)(Cl)Cl)sc2c1CCCC2` (centres undefined) returned an XC50 of 809 nM. Under “Plasmodium falciparum, 3D7”, `COc1ccc(C(=O)CCC(=O)N(CCC2CCCN2C)Cc2ccc(-c3ccc(CNCCc4ccc(S(C)(=O)=O)cc4)cn3)cc2)cc1F` (centres undefined) yielded an XC50 of 874 nM. Still for that read-out and setting: the figure for `Cc1[nH]c(C)c(-c2cccc(-c3ccc(OC(F)(F)F)cc3)c2)c(=O)c1Br` is 410 nM; for `c1ccc(CNCc2cccc(-c3ccc(-c4nc5ccccc5[nH]4)cc3)c2)cc1` it is 822 nM; for `CCN(CC)CCCNCc1ccc(-c2ccc(C(F)(F)F)cc2)cc1` it is 993 nM. `O=c1cc(NCCCNCc2cccc(OC(F)(F)F)c2)[nH]c2ccccc12` displayed an XC50 (Plasmodium falciparum, 3D7) of 854 nM. Same read-out and setting: the figure for `Cc1ccc2[nH]c(C)cc(=NN=Cc3ccc(Cl)cc3)c2c1` is 992 nM; for `CCOc1cc(CC)ccc1C1CCN(CCCCNC(=O)c2ccc(NC(=O)c3ccc(C#N)cc3)cc2)CC1` it is 504 nM; for `COc1cc(CN2CCC(C(=O)Nc3ccc(-c4cccc(C)c4)cc3)CC2)ccc1O` it is 1120 nM.

For the compound `O=C(Cn1c(CCc2cccc(F)c2F)nc(=O)c2ccccc21)N(Cc1ccc(-c2ccc(C(F)(F)F)cc2)cc1)C1CCN(C2CCSCC2)CC1`, under “Plasmodium falciparum, 3D7”, the XC50 came to 856 nM. As for `COc1ccc(-c2cc(C(=O)N[C@@H](CC3CCCCC3)C(=O)NC3CCCc4ccccc43)ccc2O)cc1` (some centres undefined), for the setting “Plasmodium falciparum, 3D7”, the XC50 was found to be 688 nM. Still for that read-out and setting: as for `CN1CCN(Cc2cccc(Nc3nccc(Nc4ccc(Oc5ccccc5)cc4)n3)c2)CC1`, the figure is 296 nM. Where the note is “Plasmodium falciparum, 3D7”, `CCOc1cc(C(=O)N[C@@H](Cc2ccccc2)[C@H](O)CNC(C)(C)c2cccc(OC)c2)cc(N2CCCS2(=O)=O)c1` returned an XC50 of 224 nM. The compound `Nc1ncc(-c2ccc3nccc(-c4ccncc4)c3c2)cc1S(=O)(=O)N1CCOCC1` gave an XC50 (Plasmodium falciparum, 3D7) of 872 nM. Same read-out and setting: as for `Nc1nc(Cc2ccc(Cl)cc2)nc(Cc2ccc(Cl)cc2)n1`, the figure is 929 nM; as for `COc1ccc2nccc(N3CCC(SCCNCc4cc5c(cn4)OCCO5)C3)c2n1` (centres undefined), 768 nM; as for `Cc1cc(C(=O)N(Cc2ccc(-c3ccc(CNCCc4ccc(S(C)(=O)=O)cc4)cn3)cc2)C(C)CN(C)C)ccc1[N+](=O)[O-]` (centres undefined), 789 nM. Still for that read-out and setting: the figure for `Cc1ccc(NC(=O)c2ccc(NCCCN3CC(C)CC(C)C3)c([N+](=O)[O-])c2)cc1F` (centres undefined) is 711 nM. Where the note is “Plasmodium falciparum, 3D7”, `O=C(O)c1ccc(-c2c[nH]c3ncc(-c4ccc(Cl)cc4)cc23)cc1` showed an XC50 of 726 nM. Still for that read-out and setting: as for `O=C(Nc1cc(F)cc(F)c1)N1CCOC(CCN2CCC3(CCc4ccccc43)CC2)(c2ccc(Cl)c(Cl)c2)C1` (centres undefined), the figure is 275 nM. Still for that read-out and setting: as for `CCCN(CCC)c1nn2c(=O)c(C(=O)N3CCN(Cc4ccccc4)CC3)cnc2s1`, the figure is 999 nM; as for `O=C(Nc1ccc(C(F)(F)F)cc1)c1ccc(S(=O)(=O)NC2CCN(CC3CCCCC3)CC2)cc1`, 731 nM. Turning to `CCNc1cc(C(=O)N[C@@H](Cc2ccccc2)[C@H](O)CNCc2cc(C#N)ccc2OC)cc(N2CCCC2=O)c1`, the XC50 (Plasmodium falciparum, 3D7) was determined as 1230 nM. Same read-out and setting: as for `CC(C)NCc1ccc(-c2ccc(NC(=O)c3cccc(C#N)c3)cc2)cc1`, the figure is 654 nM; as for `O=C(CC(=O)C(F)(F)F)c1ccccc1[N+](=O)[O-]`, 3.2 nM. The same measure, in the same setting: as for `O=C(NC1CC1)c1ccc(N2CCC(Oc3ccc(F)cc3)CC2)nc1`, the figure is 1090 nM; as for `COc1ccc2nc(C)cc(Nc3ccc(Oc4ccc(Cl)c5ccccc45)c(Cl)c3)c2c1`, 730 nM.

Where the note is “Plasmodium falciparum, 3D7”, `C=C[C@H]1CN(CCCCCCC)CC[C@H]1CC(O)Cc1ccnc2cc(O)c(OC)cc12` (some centres undefined) returned an XC50 of 818 nM. On the same count and under the same terms, as for `CO/C(=C\C=C\c1cc2cc(Cl)c(Cl)cc2[nH]1)C(=O)NCCCN1CCN(c2cccc(OCC(=O)Nc3cccc(C(=O)c4ccccc4)c3)c2)CC1`, the figure is 686 nM; as for `N#Cc1cccc(C(=O)Nc2ccc(-c3cccc(CN4CCCC4)c3)cc2)c1`, 712 nM.

Under “Plasmodium falciparum, 3D7”, `Cc1cccc(Cn2nc(-c3ccccc3)c(N3CCCCC3)cc2=O)c1` returned an XC50 of 464 nM.

For the compound `Cc1nc2ccccc2c(=O)n1NCc1ccc(Cl)c(Cl)c1`, where the note is “Plasmodium falciparum, 3D7”, the XC50 came out at 146 nM.

Consider `C[C@@H](Nc1nc(NCc2ccccc2)c2sccc2n1)c1ccccc1`, for which the XC50 (Plasmodium falciparum, 3D7) was determined as 919 nM. The same measure, in the same setting: the figure for `CCOC(=O)C(C)(C)Oc1ccc(C(=C2CC(C)(C)CC(C)(C)C2)c2ccc(O)cc2)cc1` is 1130 nM; for `CC(C)c1ccc(NC(=O)c2ccc(NCCCN(C)Cc3ccccc3)c([N+](=O)[O-])c2)cc1` it is 683 nM. On the same count and under the same terms, the figure for `COc1ccc(-n2ccnc2SCC(=O)Nc2cccc(C(F)(F)F)c2)c(OC)c1` is 220 nM; for `Fc1ccc2[nH]c(-c3cccc(-c4cccc(CNCCN5CCNCC5)c4)c3)nc2c1` it is 842 nM.

The compound `CN(C)CC(O)COc1ccc(Nc2ncc([N+](=O)[O-])c(Nc3ccccc3O)n2)cc1` (centres undefined) came in with an XC50 (Plasmodium falciparum, 3D7) of 762 nM.

As to `O=C(NCc1ccc(Cl)c(Cl)c1)c1ccc(C2CCCN(Cc3ccc4[nH]cnc4c3)C2)cc1` (centres undefined), the XC50 (Plasmodium falciparum, 3D7) came out at 776 nM. On the same count and under the same terms, the figure for `CO/C(=C\C=C\c1cc2cc(Cl)c(Cl)cc2[nH]1)C(=O)NCCCN1CCN(Cc2ccccc2)CC1` is 912 nM; for `O=C(Nc1ccc(-c2nc3ccccc3[nH]2)cc1)c1ccc(S(=O)(=O)N2CCCCC2)cc1` it is 749 nM; for `N#CCCN1CCN(Cc2cccc(-c3ccc(-c4nc5cc(C(F)(F)F)ccc5[nH]4)cc3)c2)CC1` it is 744 nM. Still for that read-out and setting: as for `Cc1cccc2nc(-c3ccc(-c4cccc(NC(=O)Nc5ccc6c(c5)OCO6)c4)cc3)[nH]c12`, the figure is 745 nM. Same read-out and setting: the figure for `S=c1nc(-c2ccccc2)n2ccsc2n1` is 176 nM; for `C=CCn1c(=N)c(C(=O)NC2CCCCC2)cc2c(=O)n3cccc(C)c3nc21` it is 1040 nM.

Under “Plasmodium falciparum, 3D7”, `Cc1ccc(-c2nnc(Nc3ccc(CC(N)=O)cc3)c3ccccc23)cc1S(=O)(=O)NCC1CCCO1` (centres undefined) registered an XC50 of 791 nM. Same read-out and setting: the figure for `CN1CCN(Cc2cc3cc(NC(=O)/C=C/c4cccc(Cl)c4)ccc3s2)CC1` is 273 nM. Still for that read-out and setting: the figure for `COc1cccc(C(=O)Nc2sc3c(c2C(N)=O)CCCC3)c1OC` is 932 nM.
